PMC12040169 (PLOS Biology, 2025)

Test: in vitro
Settings: human, hela cells

Work on `COCCn1cc(C(=O)N2CCCC(CN(C)C)C2)c2ccccc21` (stereo not shown) [CBK281431] yielded a viability at 28.5 h, 10 µM of 91.5%.

Same assay, conditions: human, hela cells, % viability

Compared with `COc1nccnc1-c1ccc(C)c(C)c1` [CBK106853], `COCOc1ccc(-c2ncc(OC)nc2NC(=O)COC)cc1` [CBK145216] is higher in viability at 28.5 h, 10 µM: 88.7% for the first, 92.7% for the second.

Compared with `COC(=O)c1ccsc1NS(=O)(=O)c1ccc(NC(C)=O)cc1` [CBK039063], `COC(=O)c1c(NC(=S)NCc2ccc(S(N)(=O)=O)cc2)sc2c1CCC2` [CBK266926] is higher in viability at 28.5 h, 10 µM: 87.7% for the first, 88.5% for the second.

First: COc1cccc(-c2noc(C3CCN(CCc4ccccc4)CC3)n2)c1 [CBK051455]
Second: CC(=O)Nc1cccc(-c2nccnc2C2CCCN(CCc3ccccc3)C2)c1 (stereo not shown) [CBK286128]
The viability at 28.5 h, 10 µM of the first is lower: 99.7% for the first, 110% for the second.

First: O=C(Cn1cnc2sc(-c3ccccc3)cc2c1=O)c1ccc2c(c1)OCO2 [CBK297102]
Second: OC(COCc1ccc2c(c1)OCO2)CN1CCN(C(c2ccccc2)c2ccccc2)CC1 (stereo not shown) [CBK074850C]
The viability at 28.5 h, 10 µM of the first is higher: 87% for the first, 83.2% for the second.

Going from `Cc1c(CNC(=O)c2cc(-c3ccncc3)nc3ccc(Cl)cc23)cnn1C` [CBK288627] to `Cc1cccc(C(=O)Nc2nnc(-c3ccncc3)o2)c1` [CBK287430], the viability at 28.5 h, 10 µM falls from 99.5% to 91.5%.

Going from `Cc1ccc(OCC(=O)N2CCN(S(=O)(=O)c3ccc([N+](=O)[O-])cc3)CC2)cc1` [CBK264267] to `COc1ccc(N2CCN(/C(=N\S(=O)(=O)c3ccc(C)cc3)Nc3nc(C)cc(C)n3)CC2)cc1` [CBK266564], the viability at 28.5 h, 10 µM falls from 103% to 99.9%.

Going from `CC1CCCN(Cc2nc3c([nH]2)c(=O)n(C)c(=O)n3C)C1` (stereo not shown) [CBK306054] to `Cn1c(N2CCCC(C(N)=O)C2)nc2ccccc21` (stereo not shown) [CBK282372], the viability at 28.5 h, 10 µM rises from 88.7% to 105%.

First: O=C(Nc1nc2c(s1)CCCCC2)C1CN(S(=O)(=O)c2ccc(F)cc2)C1 [CBK286005]
Second: COc1ccc(CNC(=O)C2CCCN(S(=O)(=O)c3cccs3)C2)cc1 (stereo not shown) [CBK304628]
The viability at 28.5 h, 10 µM of the first is lower: 95% for the first, 95.8% for the second.

Going from `Nc1ccc(S(=O)(=O)O)c2cccc(S(=O)(=O)O)c12` [CBK261492N] to `CCS(=O)(=O)c1ccc(O)c(NS(=O)(=O)c2cc(C(=O)O)ccc2Cl)c1` [CBK297531], the viability at 28.5 h, 10 µM falls from 99.6% to 91.1%.

Compared with `CC(NC(=O)CCCC(=O)c1cccs1)c1cccc2ccccc12` (stereo not shown) [CBK297748], `O=C(NCc1cccs1)c1ccccc1-n1cccc1` [CBK149584] is lower in viability at 28.5 h, 10 µM: 105% for the first, 92% for the second.

First: CCNS(=O)(=O)c1ccc(Cn2nc(NC(=O)C3COc4ccccc4O3)c3ccccc32)cc1 (stereo not shown) [CBK061613]
Second: O=C(Nc1ccc(S(=O)(=O)Nc2nccc(C3Cc4ccccc4C(=O)O3)n2)cc1)c1ccccc1 (stereo not shown) [CBK267306]
The viability at 28.5 h, 10 µM of the first is higher: 109% for the first, 105% for the second.

Going from `N#Cc1ccccc1CSc1nc2ccc([N+](=O)[O-])cc2[nH]1` [CBK269589] to `O=C(O)CSc1nc2ccccc2[nH]1` [CBK225127], the viability at 28.5 h, 10 µM rises from 84.5% to 95.3%.

First: O=C(O)CC(NS(=O)(=O)c1cccc2nsnc12)C(=O)O (stereo not shown) [CBK073316]
Second: Cc1[nH]c2ccc(C(=O)O)cc2c1CC(=O)O [CBK267080]
The viability at 28.5 h, 10 µM of the first is higher: 112% for the first, 96.3% for the second.

First: Cn1ccc(C(=O)N2CCCC3(C/C=C/Cc4ccccc4OCC(=O)NC3)C2)cc1=O (stereo not shown) [CBK292179]
Second: O=C1COc2ccccc2C/C=C/CC2(CCN(C(=O)c3cnccn3)CC2)C(=O)NCCN1 [CBK291997]
The viability at 28.5 h, 10 µM of the first is higher: 107% for the first, 106% for the second.

Going from `CC(=O)Nc1ccc(NCc2cc(Cl)ccc2OCc2ccc(Cl)cc2Cl)cc1` [CBK078179] to `O=S(=O)(Nc1ccc(Cl)c(Cl)c1)c1ccc(Cl)c(Cl)c1` [CBK044838], the viability at 28.5 h, 10 µM falls from 90.8% to 86.8%.

Compared with `N#Cc1nccnc1S(=O)(=O)CCO` [CBK023595], `CCNS(=O)(=O)c1ccc2c(c1)N(Cc1cccnc1C)CC2` [CBK306020] is higher in viability at 28.5 h, 10 µM: 90.1% for the first, 92.1% for the second.

Compared with `COc1ccc([C@@]23CC[C@@H](NC(=O)c4cccc(Cl)c4)C[C@@H]2N(C)CC3)cc1OC` [CBK073982T], `Cc1ccc(C2(O)CCN(CCNC(=O)C3CC3C)CC2)cc1` (stereo not shown) [CBK282607] is lower in viability at 28.5 h, 10 µM: 93.5% for the first, 83.9% for the second.

First: COc1cc(Nc2cncc(-c3cccc(F)c3)n2)cc(OC)c1OC [CBK065272]
Second: COc1ccc(-c2nc(NC(=O)Cc3ccccc3OC)cnc2-c2cccc(C)c2)cn1 [CBK036839]
The viability at 28.5 h, 10 µM of the first is lower: 93% for the first, 111% for the second.

Compared with `CCCCc1cc(=O)[nH]c(NCc2ccc(C(F)(F)F)cc2)n1` [CBK003946], `Cc1[nH]c(=O)[nH]c(=S)c1C(=O)Nc1ccc(C(F)(F)F)cc1` [CBK115510] is higher in viability at 28.5 h, 10 µM: 92.5% for the first, 96.2% for the second.

Compared with `CC[C@H]1CN(C(=O)c2cccnc2)CC[C@H]1CC(=O)NCc1ccc(F)cc1` [CBK289143], `O=C(CSCc1ccccc1Cl)NNC(=O)c1cccnc1` [CBK267826] is higher in viability at 28.5 h, 10 µM: 88.6% for the first, 113% for the second.

First: CC1(c2[nH]nc(N)c2Cc2c(Cl)cccc2Cl)CC1 [CBK115483T]
Second: Cc1n[nH]c(C)c1CNC(=O)CCc1ccc(Cl)cc1 [CBK283185]
The viability at 28.5 h, 10 µM of the first is lower: 92.3% for the first, 95% for the second.

First: COc1ccc(Nc2ccc(-c3ccc4ccccc4c3)cn2)cn1 [CBK037744]
Second: COc1ccc(O)c(C(=O)c2cnn(-c3ccccn3)c2)c1 [CBK295141]
The viability at 28.5 h, 10 µM of the first is lower: 88.6% for the first, 97.9% for the second.

Compared with `Cc1ccc(S(=O)(=O)N2CCN(CC(O)COc3ccc4ccccc4c3Cl)CC2)c(C)c1` (stereo not shown) [CBK266563], `CCOc1ccccc1C(=O)Nc1cc(C)c2c(=O)oc3ccccc3c2n1` [CBK291240] is higher in viability at 28.5 h, 10 µM: 83% for the first, 87.4% for the second.

First: COC(=O)COc1ccc(Oc2nc(N(C)C)nc(N3CCOCC3)n2)nn1 [CBK267258]
Second: O=C(O)c1cnc2ccc(F)cc2c1N1CCOCC1 [CBK287851]
The viability at 28.5 h, 10 µM of the first is higher: 104% for the first, 82.5% for the second.

Going from `O=C(c1ccccc1)N1CCCC(c2nccnc2-c2cccc(C(F)(F)F)c2)C1` (stereo not shown) [CBK286218] to `O=C(c1ccccc1NS(=O)(=O)c1ccc(C(F)(F)F)cc1[N+](=O)[O-])N1CCOCC1` [CBK043353], the viability at 28.5 h, 10 µM falls from 99.9% to 84.4%.

First: CC(=O)Nc1cccc(-c2cn3ccnc3c(N[C@@H](CO)C(C)C)n2)c1 [CBK036605]
Second: CC(C)CNc1nc(-c2cccnc2)cnc1N [CBK063780]
The viability at 28.5 h, 10 µM of the first is higher: 106% for the first, 99.5% for the second.

Going from `Cc1cc(NN(Cc2ccccc2)Cc2ccccc2)n2c(nc3ccccc32)c1C#N` [CBK262666] to `N#CC(CCCN1CCN(c2ccccc2)CC1)(c1ccccc1)c1ccccc1` [CBK002243C], the viability at 28.5 h, 10 µM falls from 96.9% to 96.8%.

`Oc1nc2cccnc2cc1-c1ccc2c(c1)OCCCO2` [CBK081299] and `Cc1cccnc1NC(=O)c1c(O)c2ccccc2n(C)c1=O` [CBK261431] are the same in viability at 28.5 h, 10 µM: 96% for the first, 96% for the second.

Going from `O=C(Nc1cnc(-c2ccc(F)c(Cl)c2)c(-c2cccnc2)n1)c1cnccn1` [CBK036819] to `O=c1[nH]c2ncc(-c3ccsc3)nc2n1-c1ccc2[nH]ccc2c1` [CBK064650], the viability at 28.5 h, 10 µM rises from 102% to 108%.

Going from `CCN1CCN(C(=O)C2CCCCC2C(=O)O)CC1` (stereo not shown) [CBK270337] to `CCC(CN1CCN(C)CC1)NC(=O)C1(c2ccc(F)cc2)CC1` (stereo not shown) [CBK282785], the viability at 28.5 h, 10 µM falls from 111% to 104%.

Going from `Cc1nnc(SCc2nc(N)nc(Nc3ccccc3)n2)s1` [CBK266436] to `Cc1cc(O)nc2sc(C(=O)c3ccccc3)c(N)c12` [CBK115334], the viability at 28.5 h, 10 µM falls from 109% to 87.9%.

Compared with `CC(NCc1ccc(S(N)(=O)=O)cc1)=C1C(=O)c2ccccc2C1=O` [CBK262692], `N#Cc1ccc(CNC(=O)c2ccc3[nH]ccc3c2)cc1` [CBK149078] is higher in viability at 28.5 h, 10 µM: 87% for the first, 87.8% for the second.

Compared with `COc1ccc(-c2nnc(S)n2/N=C\c2ccc(C(=O)O)cc2)cc1` [CBK264419], `COc1ccc(CC(=O)N2CCCC2c2nc3ccccc3[nH]2)cc1` (stereo not shown) [CBK283666] is higher in viability at 28.5 h, 10 µM: 92.4% for the first, 93.4% for the second.

Compared with `CC(=O)N1CCc2c([nH]c3cc(F)ccc23)C12CCN(CCC#N)CC2` [CBK039692], `OCCN1CC2(CCN(Cc3ncc[nH]3)CC2)c2ccccc21` [CBK126763] is higher in viability at 28.5 h, 10 µM: 95.7% for the first, 102% for the second.

First: CSc1ncc(CNC(=O)Nc2ccc3c(c2)CCC3)n1C [CBK306996]
Second: Cc1ccc(NC(=O)CSc2nnc3c4c5c(sc4nc(-n4nc(C)cc4C)n23)COC(C)(C)C5)cc1 [CBK268675]
The viability at 28.5 h, 10 µM of the first is higher: 107% for the first, 93.2% for the second.

Compared with `Cc1nn(C)c(Oc2cccc(C(F)(F)F)c2)c1C(=O)O` [CBK000324], `CC1(C)CC(=O)c2sc(NC(=O)c3ccc(OC(F)(F)F)cc3)nc2C1` [CBK144102] is higher in viability at 28.5 h, 10 µM: 102% for the first, 109% for the second.

Going from `COc1ccc2[nH]cc(C3CCN(Cc4cc(C)no4)CC3)c2c1` [CBK303996] to `CN(C)c1ccc(C(=O)N2CCC(c3cc4cnccc4[nH]3)CC2)cc1` [CBK283446], the viability at 28.5 h, 10 µM falls from 91.5% to 83.8%.

`CN(CC(=O)Nc1ccccc1N1CCCC1)Cc1cnn(Cc2ccccc2)c1` [CBK295187] and `COc1ccccc1NC(=O)CSCc1nc2ccccc2[nH]1` [CBK268385] are the same in viability at 28.5 h, 10 µM: 105% for the first, 105% for the second.

First: Cc1cc(O)cc(=O)n1Cc1cccnc1 [CBK291123]
Second: COCc1cc(=O)n2ncc(-c3ccccc3)c2[nH]1 [CBK288168]
The viability at 28.5 h, 10 µM of the first is higher: 112% for the first, 84.6% for the second.

First: Cc1nc2c(OCCOc3ccc(F)cc3)cccn2c1N(C)C(=O)CCC1CCCC1 [CBK147198]
Second: COc1ccc(CC(=O)N2C3CCC2CC(O)(c2ccco2)C3)cc1 (stereo not shown) [CBK284137]
The viability at 28.5 h, 10 µM of the first is higher: 103% for the first, 92.5% for the second.

First: CC(C)CNS(=O)(=O)c1ccc(CCC(=O)O)cc1 [CBK287107]
Second: CC(C)(C)c1ccc(O)c(NC(=S)NC(=O)c2cccc(OCc3ccccc3)c2)c1 [CBK269018]
The viability at 28.5 h, 10 µM of the first is lower: 80.9% for the first, 97.3% for the second.

Compared with `Cc1c(C(=O)NC(C)c2cc3ccccc3o2)cnn1C` (stereo not shown) [CBK283074], `Cc1ccc(-n2c(C)c(C)c3c(NCCO)cnnc32)cc1` [CBK288162] is higher in viability at 28.5 h, 10 µM: 99.3% for the first, 101% for the second.

Going from `Cc1ccc(OCC(=O)Nc2sc3c(c2C(N)=O)CCCCC3)c([N+](=O)[O-])c1` [CBK268148] to `CCCN1CC(NS(=O)(=O)c2cc(OC)c(C)cc2OC)CC1=O` (stereo not shown) [CBK307036], the viability at 28.5 h, 10 µM falls from 101% to 75.4%.

Same assay, conditions: human, hela cells, % viability, bulk resorufin, single well

In the case of `CS(=O)(=O)c1ccc(-c2ccc3c(c2)COC2(CCN(C(=O)CC4CCCCC4)CC2)O3)cc1` [CBK160589], the viability at 28.5 h, 10 µM is reported as 96.7%.
